Results on seven molecules are retold here after US12016358B2, “Composition comprising taste modulation compounds, their use and foodstuff comprising them” (V. MANE FILS, priority 2015, dated 2024).

Entries after “also recorded” stand apart in the source; their conditions may differ. Marks after values point to notes of the source that are not given here.

Format in all cases: in vivo, human
Assay [1] has as its system Saltiness and Salivation (cheese sauce). The assay can be described thus: Various levels of pantolactone (D-isomer) in cheese sauce, expert tasters. The note with it: for Saltiness score: 1 = low up to 5 = high, Control 1. The source says: Five expert tasters consumed the Control and then samples comprising various levels of pantolactone (D-isomer). It was concluded that pantolactone (D-isomer) is clean tasting up to 10-12 ppm in cheese sauce.

Assay [2] deals with umami taste perception (chicken broth). The assay can be described thus: Chicken broth, expert tasters. Particulars: Campbell's chicken noodle soup broth 50:50 with water; 5 ppm (each); vs Control. An excerpt:
Five expert tasters consumed the Control (chicken broth) and then chicken broth with either 5 ppm of pantolactone (D-isomer) or 5 ppm of mevalonolactone.

Assay [3] concerns Sweetness of Rebaudioside-A. As to the kind of experiment: Sweetness of Rebaudioside-A water solutions, expert tasters. The source says:
The product containing either 25 or 250 ppm Reb-A without pantolactone (Control) is compared with the product containing pantolactone (D-isomer) added at either 5, 10 or 20 ppm as noted in Table 6.

Assay [4] deals with Heat Perception of Chili Extract Paste. As to the kind of experiment: Heat perception of chili extract paste in water, expert tasters. Particulars: 5 ppm. As to the method: Pantolactone (D-isomer) and mevalonolactone were added at 5 ppm to chili extract paste and dissolved in water.
The taste perception of the product without the flavour modifying composition (Control) was compared with the same product (Test) containing the flavour modifying composition. Four expert tasters consumed the chili extract paste solution alone and then the tasters consumed one of two different dilution formats (medium or hot) of the chili extract paste solution containing 5 ppm of either pantolactone (D-isomer) or mevalonolactone.

For assay [5], the system named is Sweetness and Bitterness of Milk Chocolate. The assay can be described thus: Milk chocolate, expert testers. Particulars: 5 ppm, vs Control. An excerpt:
The taste perception of the product without the addition of flavour modification compostion (Control) was compared with the same product (Test) containing the flavour modifying composition.

Assay [6] relates to Complexity and Body of Wine. As to the kind of experiment: Wine, expert tasters. The note with it: 5 ppm (each); vs Control. As to the method: Pantolactone (D-isomer) and mevalonolactone were added individually or as a mixture at 5 ppm each to wine.
The test system of assay [7] is Flavour Balance of a Tomato-Based Condiment. As to the kind of experiment: Ketchup samples, expert panel. The note with it: 5.4 ppm; vs Control (0.1% ethyl alcohol). As to the method:
Ketchup containing sucrose as the base sweetener in two different formulations and ketchup containing sucralose as the base sweetener in a third formulation were evaluated without (control) and with addition of pantolactone added at 5.4 ppm (test).

Assay [8] deals with Salt Taste in a Low Sodium Soy Sauce. As to the kind of experiment: Low sodium soy sauce, expert tasters. Particulars: 5 ppm solution, 1 ml (0.005 mg) between two 1 g soy sauce portions. As to the method: Low sodium soy sauce (Kikkoman's®) was evaluated without and with a water based solution of 2-acetyl-butyrolactone and 4-hydroxy-6-methyl-2-pyrone at 5 ppm concentration. Five expert tasters consumed 1 g low sodium soy sauce alone, then 1 ml of flavour modifying solution, and then again 1 g of the low sodium soy sauce.

For assay [9], the system named is Saltiness of Cheese Sauce. As to the kind of experiment: Cheese sauce (Ragu), expert tasters. The note with it: 5 ppm solution, 1 ml (0.005 mg) between two 20 g portions. As to the method: Cheese sauce (Ragu®) was evaluated without and with a water based solution of 2-acetyl-butyrolactone and 4,6-dimethyl-alpha-pyrone at 5 ppm concentration. Five expert tasters consumed 20 g cheese sauce alone, then 1 ml of flavour modifying solution, and then again 20 g of cheese sauce.

Assay [10] deals with Saltiness and Salivation (cheese sauce). As to the kind of experiment: Mixtures of pantolactone, m-cresol and 3-n-propylphenol in cheese sauce, expert tasters. The source says:
A number of combinations of Pantolactone, m-cresol and 3-n-propylphenol are noted in Table 15. Five expert tasters consumed the Control and then each of the treatments and recorded a score.

In assay [11] the test system is Salt Taste in a Chicken Powder Solution. The assay can be described thus: Saltiness of chicken powder solution, DFR panel. Particulars: chicken powder and sodium chloride in water, 5 ppm. As to the method:
Panelists evaluated all samples in fully enclosed partitioned booths under white lights. Fizz NETWORK Software Acquisitions Biosystemes 2.478 was used for data collection. Each panelist was provided with filtered water for rinsing and instructed to follow a strict rinsing procedure. The rinsing protocol required panelists to rinse prior to tasting the first sample, and after tasting each sample.
Samples were evaluated using a Deviation from Reference (DFR) method. Panelists were given an identified reference labeled “000” and a coded sample simultaneously. The coded sample was either a blind, coded reference or a coded test sample. The panelists were instructed to taste the reference (000) first and mentally evaluate its SALTINESS intensity. Panelists were then instructed to taste and rate the coded sample's intensity for SALTINESS compared to the identified reference. Sample sets were given to the panelists in balanced, randomized order. A one-minute wait period was enforced between sample sets to reduce flavour carryover.
Panelists rated SALTINESS intensity difference from the reference using a 9-pt scale anchored with the following descriptors: (−4) Extremely less than Reference, (0) Same as Reference, (4) Extremely more than Reference. Number values were NOT shown on the scale. Statistical mean differences were calculated using one-way ANOVA using Fizz Calculations Biosystemes 2.478. […]

Where [12] appears, read: water, 25 ppm Reb-A, 20 ppm pantolactone (D-isomer).

Consider `CC1(C)COC(=O)C1O` (single isomer, unassigned) [pantolactone (D-isomer)], for which, in assay [1] (0.54 ppm), the Salivation effect entry is reported as “no” and the Saltiness score came out at 1.8. In assay [1] (2.7 ppm), the Salivation effect entry was “yes” and the Saltiness score came to 2.2. Also, in assay [1] (5.4 ppm), the Salivation effect entry is “yes” and the Saltiness score was found to be 2.5. Further, in assay [1] (10.8 ppm), the Salivation effect entry is given as “yes” and the Saltiness score is 3. Moreover, in assay [1] (27 ppm), the Salivation effect result is given as “yes” and the Saltiness score is reported as 3 **. For the same molecule, the Observations result in assay [2] is reported as “amplify umami taste perception; also recorded: Fatty from chicken fat; also recorded: Enhanced umami”. In assay [3] (increasing levels added to 25 ppm Reb-A water solutions, up to 20 ppm), the “sweetness vs control sample” value was “more sweetness than the control sample”. Also, in [3] (increasing levels added to 250 ppm Reb-A water solutions), the perception of sweetness entry was “cleaner upfront perception of sweetness with less lingering taste”. In addition, in assay [3] (setting [12]), the “Taster Observations Taster 1” value is given as “second sweetest” and the “Taster Observations Taster 2” value is “sweet like 10 ppm”. Further, the “perception of heat (conclusion)” value in assay [4] was “lower perception of heat and less lingering of heat”. Moreover, in assay [5], the “sweetness and bitterness perception, Hershey's Bliss Chocolate” value was “perceived sweeter and less bitter”. Further, the “perception of complexity and body, Box red wine - Vella Burgundy California Table Wine” value in assay [6] is “more complex and having more body”. Further, in assay [7], the “Observations Ketchup sucralose-based, Source #3” value is on record as “improved dramatically in all elements”; the “Observations Ketchup sucrose-based, Source #1” value was “enhanced in a balanced way”; the “Observations Ketchup sucrose-based, Source #2” value is “taste enhancement but not in a balanced way”.

Regarding `CC(=O)C1CCOC1=O` (stereo not shown) [2-acetyl-butyrolactone], the “Kikkoman's Low Sodium Soy Sauce: taste observation” value in assay [8] was “amplified saltiness; also recorded: slightly amplified saltiness”. For the same molecule, the “Cheese Sauce: taste observation” value in assay [9] is “amplified saltiness; also recorded: Slightly amplified umami”.

Turning to `CCCc1cccc(O)c1` [3-n-propylphenol], in assay [10], the “conclusion on blends / components” value is on record as “effective, but exhibits flavour aroma character at slightly elevated levels”.

In the case of `Cc1cc(C)oc(=O)c1` [4,6-dimethyl-alpha-pyrone], the “Cheese Sauce: taste observation” value in [9] is reported as “amplified saltiness; also recorded: Slightly amplified umami”.

For `Cc1cc(O)cc(=O)o1` [4-hydroxy-6-methyl-2-pyrone], in assay [8], the “Kikkoman's Low Sodium Soy Sauce: taste observation” value was “amplified saltiness”.

Turning to `C[C@@]1(O)CCOC(=O)C1` [mevalonolactone], in assay [2], the Observations result is recorded as “amplify umami taste perception; also recorded: Enhanced umami; also recorded: Fatty from chicken fat”. Further, in assay [4], the “perception of heat (conclusion)” value is given as “enhanced perception of fruitiness but no change in the perception of heat”. The “perception of complexity and body, Box red wine - Vella Burgundy California Table Wine” value in assay [6] was “more complex and having more body”.

`CC1(C)COC(=O)C1O` (stereo not shown) [pantolactone, dihydro-3-hydroxy-4,4-dimethyl-2(3H)-furanone]: the “difference in SALTINESS between Control and Variant” value in assay [11] (Control presented as the reference) was “significant difference”; in [11] (Variant presented as the reference) it was “not a significant difference in SALTINESS”.
